Where two headings read alike, the source gives them in different places.
Columns and labels:
[1] = test system: primary hepatocytes of propionic acidemia patients; experiment: Reduction of 13C-propionyl-CoA and accumulation of compound-CoA ester after 13C-isoleucine challenge (Example 1); format: cell-based; conditions: Homo sapiens, Hepatocyte, 13C-labeled isoleucine, compound 0 μM to 1,000 μM
Description: Primary hepatocytes are isolated from explanted livers of propionic acidemia patients and are cultured on day 1 using standard protocols (see: Chapman et al. “Recapitulation of metabolic defects in a model of propionic acidemia using patient-derived primary hepatocytes” Mol. Genet. Metab. 2016, 117(3), 355-362). Approximately 2×10^5 hepatocytes are plated into each well of a collagen-coated 48-well tissue culture plate and pre-conditioned in a custom Modified Corning culture media for Hepatocells (Corning) without low levels of branched chain amino acids for 72 hours. On day 4, hepatocytes are treated with increasing doses of compound (0, 1, 3, 10, 30, 100, 300, 1000 μM) for 30 min. After 30 min the cells are challenged with ^13C-isoleucine (3 mM). At the end of the challenge period, cells are lysed in 100 μL of […] acetonitrile (MeCN) and 0.1% trifluoroacetic acid (TFA) containing 100 μM of ethymalonyl-CoA as an internal standard. Cells are removed from the well by scraping into the lysis buffer. The collected cellular samples are then dispensed into a microfuge tube. The plate wells are washed again with lysis buffer to ensure the remaining cells are dislocated from the well. All remaining collected cells are then moved into the centrifuge tube. The cellular samples are flash frozen in liquid nitrogen and stored at −80° C. To begin processing, the frozen cellular lysates are thawed on ice and vortexed. The samples are centrifuged at 20,000 g for 10 min at 4° C. and the total volume of supernatant is transferred to a no-bind 96-well plate on ice. The samples are dried under vacuum for about 2 hours and then resuspended in 150 μL of water in each well. Total volumes of samples are filtered through a prepared Durapore filter plate into a no-bind 96-well plate. The filtered samples are stored at −80° C. for HTMS/MS analysis.

[2] = test system: primary hepatocytes of propionic acidemia patients; experiment: Propionyl-CoA from various sources in PA primary hepatocytes (Examples 2, 3); format: cell-based, human; conditions: for EC50: Homo sapiens, Hepatocyte, read-out: concentration of propionyl-CoA EC50
Description: Primary hepatocytes isolated from livers of propionic acidemia patients are treated with increasing doses of compound 1 (0, 1, 3, 10, 30, 100, 300, 1000 μM) for 30 min. After 30 min the cells are challenged with the different sources of P-CoA, which may include ^13C-ketoisovaleric acid (KIVA) (1 mM), […] (ILE) (3 mM), ^13C-threonine (THR) (5 mM), ^13C-methionine (MET) (5 mM), ^13C-heptanoate (100 μM), or ^13C-propionate (5 mM) for 60 minutes. At the end of the challenge period, media is removed and the cells are lysed with 70% MeCN and 0.1% TFA containing 100 μM of ethymalonyl-CoA as an internal standard and harvested. Cell lysates are processed for HTMS/MS analysis.
Primary hepatocytes isolated from livers of propionic acidemia patients are treated with increasing doses of compound 5 (0, 0.1, 0.3, 1, 3, 10, 30, 100 μM) for 30 minutes. After 30 minutes the cells are challenged with the different sources of P-CoA, which may include ^13C-KIVA (1 mM), ^13C-isoleucine (3 mM), ^13C-threonine (5 mM), ^13C-methionine (5 mM), ^13C-heptanoate (100 μM), or ^13C-propionate (5 mM) for 60 minutes. At the end of the challenge period, media is removed and the cells are lysed with 70% MeCN and 0.1% TFA containing 100 μM of ethymalonyl-CoA as an internal standard and harvested. Cell lysates are processed for HTMS/MS analysis.

[3] = test system: primary hepatocytes of methylmalonic acidemia patients; experiment: Propionyl-CoA and methylmalonyl-CoA from various sources in MMA primary hepatocytes (Examples 4, 5); format: cell-based, human; conditions: for EC50: Homo sapiens, Hepatocyte
Description: (§1) Primary hepatocytes isolated from livers of methylmalonic acidemia patients are treated with increasing doses of compound 1 (0, 1, 3, 10, 30, 100, 300, 1000 μM) for 30 minutes. […] At the end of the challenge period, media is removed and the cells are lysed with 70% MCCN and 0.1% TFA containing 100 μM of ethymalonyl-CoA as an internal standard and harvested. Cell lysates are processed for HTMS/MS analysis.
as §1, with “compound 5” for “compound 1”, “(0, 0.1, 0.3,” for “(0,”, “30, 100” for “30, 100, 300, 1000”, “30 min.” for “30 minutes.”, “70% MeCN” for “70% MCCN”

[4] = test system: primary hepatocytes of propionic acidemia patients; experiment: Propionyl-carnitine (C3) in PA primary hepatocytes (Example 6); format: cell-based, human; conditions: for EC50: Homo sapiens, Hepatocyte, read-out: concentration of propionyl-carnitine EC50
Description: Primary hepatocytes isolated from livers of propionic acidemia patients are treated with increasing doses of compound 1 (0, 1, 3, 10, 30, 100, 300, 1000 μM) for 30 min. After 30 min the cells are challenged with ^13C-KIVA (1 mM) and ^13C-isoleucine (3 mM) for 60 minutes. At the end of the challenge period, media is removed and the cells are washed with ice cold PBS. Cells are lysed with 70% MeCN containing 4 nM of hexanoyl-carnitine as an internal standard (lysis buffer), harvested and processed for HTMS/MS analysis.

[5] = test system: primary hepatocytes of propionic acidemia patients; experiment: Reduction of propionyl-CoA with compounds 8 and 9 (Example 9); format: cell-based, human; conditions: PA hepatocytes; 13C-isoleucine (3 mM)
Description: Primary hepatocytes isolated from livers of propionic acidemia patients are treated with increasing doses of compound 1 (0, 0.1, 0.3, 1, 3, 10, 30, 100 μM) for 30 minutes. After 30 minutes, the cells are challenged with ^13C-isoleucine (3 mM) for 60 minutes. At the end of the challenge period, media is removed and the cells are lysed with 70% MeCN and 0.1% TFA containing 100 μM of ethymalonyl-CoA as an internal standard and harvested. Cell lysates are processed for HTMS/MS analysis.

[6] = read-out: concentration of 12C-Compound-CoA ester EC50
[7] = read-out: concentration of 13C-propionyl-CoA EC50

`CCCC(CCC)C(=O)O` [Compound 1, 2-propylpentanoic acid (valproic acid)] was tested, and the EC50 [1, 6] was 12.5 µM, the EC50 [1, 7] was 12.4 µM and the “intracellular propionyl-CoA from all sources investigated” value [2] was “dose-dependent reduction”. The EC50 ([2]; 100 μM 13C-heptanoate) was 48.2 µM, the EC50 ([2]; 1 mM 13C-KIVA) was 14.2 µM and the EC50 ([2]; 3 mM 13C-ILE) was 15 µM. It also gave an EC50 ([2]; 5 mM 13C-MET) of 7.14 µM, an EC50 ([2]; 5 mM 13C-THR) of 9.2 µM and an EC50 ([2]; 5 mM 13C-propionate) of 21.2 µM. The “intracellular propionyl-CoA and methylmalonyl-CoA from all sources investigated” value [3] was “dose-dependent reduction”, the EC50 ([3]; 100 μM 13C-propionate, read-out: concentration of methylmalonyl-CoA EC50) was 89.4 µM and the EC50 ([3]; 100 μM 13C-propionate, read-out: concentration of propionyl-CoA EC50) was 68.2 µM. The EC50 ([3]; 1 mM 13C-KIVA, read-out: concentration of methylmalonyl-CoA EC50) was 31.3 µM, the EC50 ([3]; 1 mM 13C-KIVA, read-out: concentration of propionyl-CoA EC50) was 30.9 µM and the EC50 ([3]; 3 mM 13C-ILE, read-out: concentration of methylmalonyl-CoA EC50) was 25.5 µM. For the same molecule, the EC50 ([3]; 3 mM 13C-ILE, read-out: concentration of propionyl-CoA EC50) was 30.8 µM, the EC50 ([3]; 5 mM 13C-MET, read-out: concentration of methylmalonyl-CoA EC50) was 47.3 µM and the EC50 ([3]; 5 mM 13C-MET, read-out: concentration of propionyl-CoA EC50) was 50.7 µM. The EC50 ([3]; 5 mM 13C-THR, read-out: concentration of methylmalonyl-CoA EC50) was 25.6 µM, the EC50 ([3]; 5 mM 13C-THR, read-out: concentration of propionyl-CoA EC50) was 13.9 µM and the “intracellular propionyl-carnitine (C3) from 13C-KIVA or 13C-isoleucine” value [4] was “dose-dependent reduction”. It also gave an EC50 ([4]; 1 mM 13C-KIVA) of 44.3 µM and an EC50 ([4]; 3 mM 13C-ILE) of 54.3 µM.

With `CCCC(CC)C(=O)O` (centres unmarked) [Compound 2, 2-ethylpentanoic acid] the EC50 [1, 6] was 1.24 µM and the EC50 [1, 7] was 1.23 µM.

`CCCC(C)C(=O)O` (centres unmarked) [Compound 3, 2-methylpentanoic acid] showed an EC50 [1, 6] of 27.4 µM and an EC50 [1, 7] of 13 µM.

`CCC(CC)C(=O)O` [Compound 4, 2-ethylbutanoic acid] showed an EC50 [1, 6] of 10.3 µM and an EC50 [1, 7] of 32.4 µM.

With `CC(C)(C)CC(=O)O` [Compound 6, 3,3-dimethylbutanoic acid] the EC50 [1, 6] was 0.48 µM and the EC50 [1, 7] was 0.91 µM.

`CC1(CC(=O)O)CC1` [Compound 7, 2-(1-methylcyclopropyl) acetic acid] showed an EC50 [1, 6] of 10.2 µM and an EC50 [1, 7] of 28.8 µM.

For `CC(C)(C)C(=O)O` [Compound 8, 2,2,dimethylpropionic acid], the “intracellular propionyl-CoA” value [5] was “dose-dependent reduction”.

In the case of `CCCC(C)(C)C(=O)O` [Compound 9, 2,2-dimethylpentanoic acid], the “intracellular propionyl-CoA” value [5] is reported as “dose-dependent reduction”.

Source: patent US20220142955A1, “METHODS OF TREATING ORGANIC ACIDEMIAS” (HemoShear Therapeutics, Inc., priority 2019, published 2022)
